According to paper PMC7099627, “Design, synthesis, heme binding and density functional theory studies of isoindoline-dione-4-aminoquinolines as potential antiplasmodials” (Future Medicinal Chemistry, 2019):
Like-named read-outs stand apart in the source and are kept apart here.

Tests used:
[1] = system: chloroquine-resistant W2 strain of Plasmodium falciparum; test: Antiplasmodial activity, growth inhibition by flow cytometry; format: cell-based
Procedure: The compounds were added from DMSO stocks; the maximum concentration of DMSO used was 0.1%. Controls without inhibitors included 0.1% DMSO. […] Fixed parasites were then transferred to 0.1% Triton X-100 in phosphate-buffered saline containing 1 nM YOYO-1 dye (Molecular Probes, MA, USA). Parasitemia was determined from dot plots (forward scatter vs fluorescence) acquired on a FACSort flow cytometer using Cell Quest software (Beckton Dickinson, NJ, USA). IC50 values for growth inhibition were determined from plots of percent control parasitemia over inhibitor concentration using the Prism 5.0 program (GraphPad Software, CA, USA), with data from duplicate experiments fitted by nonlinear regression.
The synthesized C4/C5substituted-isoindoline-1,3-diones-4-aminoquinolines were screened for their antiplasmodial activity against CQR (W2) strain of P. falciparum (Table 1).

[2] = Cytotoxicity assay (resazurin cell viability); format: cell-based; details: African green monkey; mammalian Vero cells, 24 h incubation, resazurin
Procedure: (§1) Cell viability was determined using Vero cells (ATCC, Sigma, Munich, Germany), which were grown in RPMI medium (Gibco) supplemented with 10% decomplemented fetal calf serum under 5% CO2 atmosphere.

Vero cells = test: Cytotoxicity assay (resazurin cell viability); format: cell-based; details: for SI (selectivity index): Vero cytotoxicity vs W2 antiplasmodial IC50
Procedure: as §1

[3] = Heme-binding spectrophotometric titration (HypSpec); details: 40% aq. DMSO, heme 12 μM
Procedure: The resultant 40% DMSO solutions maintain the hematin solutions in the monomeric state at concentrations used. […] All the working solutions were kept in dark to avoid photo-sensitivity. Diluent solutions were prepared by dissolving 1 mL of 0.02 M HEPES and 4 mL of spectroscopic grade DMSO and made up to a final volume of 10 mL with ultrapure, HPLC grade Hipersolv water.

[4] = Plasmodium falciparum, W2, 48 h, chloroquine-resistant W2 strain, 48 h incubation, read-out: IC50
[5] = mammalian Vero cells, 24 h incubation, resazurin, read-out: IC50 (μM cytotoxicity)
[6] = chloroquine-resistant W2 strain, 48 h incubation, read-out: IC50
[7] = Plasmodium falciparum, W2, chloroquine-resistant W2 strain, Figure 1, read-out: IC50

Compound	IC50 [1, 4]	IC50 at 24 h [2]	SI (selectivity index) (Vero cells)	IC50 (Vero cells; [5])	other results
O=C1c2ccc(N3CCCCC3)cc2C(=O)N1CCCCNc1ccnc2cc(Cl)ccc12 [4g]	77 nM	< 27 µM	–	–	–
O=C1c2ccc(N3CCCCC3)cc2C(=O)N1CCCNc1ccnc2cc(Cl)ccc12 [4f, 2-(3-((7-chloroquinolin-4-yl)amino)propyl)-5-(piperidin-1-yl)isoindoline-1,3-dione]	176 nM	–	317	55.8 µM	–
O=C1c2cccc(N3CCCCC3)c2C(=O)N1CCNc1ccnc2cc(Cl)ccc12 [4a]	–	–	–	–	IC50 [1, 6]: 158 nM; IC50 (Vero cells): < 28.8 µM
O=C1c2cccc(N3CCCCC3)c2C(=O)N1CCCCCCNc1ccnc2cc(Cl)ccc12 [4d, 2-(6-((7-chloroquinolin-4-yl)amino)hexyl)-4-(piperidin-1-yl)isoindoline-1,3-dione]	75 nM	–	2720	204 µM	–
O=C1c2cccc(N3CCOCC3)c2C(=O)N1CCNc1ccnc2cc(Cl)ccc12 [4i]	180 nM	< 28.6 µM	–	–	–
O=C1c2ccc(N3CCOCC3)cc2C(=O)N1CCCCNc1ccnc2cc(Cl)ccc12 [4o, 2-(4-((7-chloroquinolin-4-yl)amino)butyl)-5-morpholinoisoindoline-1,3-dione]	49 nM	< 26.9 µM	–	–	–
O=C1c2cccc(N3CCOCC3)c2C(=O)N1CCCCCCNc1ccnc2cc(Cl)ccc12 [4l]	25 nM	–	–	50.8 µM	–
O=C1c2cccc(N3CCOCC3)c2C(=O)N1CCCNc1ccnc2cc(Cl)ccc12 [4j]	276 nM	–	805	222 µM	–
O=C1c2ccc(N3CCN(CCO)CC3)cc2C(=O)N1CCCCCCNc1ccnc2cc(Cl)ccc12 [4t]	15 nM	< 23.3 µM	–	–	–
CCN(CC)CCCC(C)Nc1ccnc2cc(Cl)ccc12 (stereo not shown) [CQ, Chloroquine, reference compound]	–	–	–	–	IC50 ([1]; Plasmodium falciparum, W2, 48 h): 79 nM
O=C1c2ccc(N3CCN(CCO)CC3)cc2C(=O)N1CCNc1ccnc2cc(Cl)ccc12 [4q]	44 nM	< 26 µM	–	–	–
O=C1c2cccc(N3CCOCC3)c2C(=O)N1CCCCNc1ccnc2cc(Cl)ccc12 [4k, 2-(4-((7-chloroquinolin-4-yl)amino)butyl)-4-morpholinoisoindoline-1,3-dione]	71 nM	–	1517	108 µM	–
O=C1c2ccc(N3CCCCC3)cc2C(=O)N1CCNc1ccnc2cc(Cl)ccc12 [4e]	–	–	–	–	IC50 [1, 6]: 163 nM; IC50 (Vero cells): < 28.8 µM
O=C1c2ccc(N3CCOCC3)cc2C(=O)N1CCCCCCNc1ccnc2cc(Cl)ccc12 [4p]	19 nM	< 25.4 µM	–	–	–
O=C1c2ccc(N3CCOCC3)cc2C(=O)N1CCNc1ccnc2cc(Cl)ccc12 [4m, 2-(2-((7-chloroquinolin-4-yl)amino)ethyl)-5-morpholinoisoindoline-1,3-dione]	370 nM	< 28.6 µM	–	–	–
O=C1c2ccc(N3CCN(CCO)CC3)cc2C(=O)N1CCCCNc1ccnc2cc(Cl)ccc12 [4s, 2-(4-((7-chloroquinolin-4-yl)amino)butyl)-5-(4-(2-hydroxyethyl)piperazin-1-yl)isoindoline-1,3-dione]	14 nM	< 24.6 µM	–	–	–
O=C1c2ccc(N3CCCCC3)cc2C(=O)N1CCCCCCNc1ccnc2cc(Cl)ccc12 [4h]	–	–	–	–	IC50 [1, 6]: 123 nM; IC50 (Vero cells): < 25.5 µM
C[C@@H]1CC[C@H]2[C@@H](C)C(=O)O[C@@H]3O[C@@]4(C)CC[C@@H]1[C@]32OO4 [ART, Artemisinin, reference compound]	5 nM	–	–	–	IC50 [1, 7]: 5.3 nM
O=C1c2ccc(N3CCOCC3)cc2C(=O)N1CCCNc1ccnc2cc(Cl)ccc12 [4n]	118 nM	–	1883	222 µM	–
O=C1c2ccc(N3CCN(CCO)CC3)cc2C(=O)N1CCCNc1ccnc2cc(Cl)ccc12 [4r, 2-(3-((7-chloroquinolin-4-yl)amino)propyl)-5-(4-(2-hydroxyethyl)piperazin-1-yl)isoindoline-1,3-dione]	–	< 25.3 µM	–	–	IC50 [1, 7]: 6.6 nM; activity relative to CQ (fold higher) ([1]; antiplasmodial activity vs CQ): ~12 fold; IC50 [1, 6]: 6 nM; Monomeric Heme log K ([3]; pH 5.6 (MES buffer)): 5.41; Monomeric Heme log K ([3]; pH 7.4 (HEPES buffer)): 5.14
O=C1c2cccc(N3CCCCC3)c2C(=O)N1CCCCNc1ccnc2cc(Cl)ccc12 [4c, 2-(4-((7-chloroquinolin-4-yl)amino)butyl)-4-(piperidin-1-yl)isoindoline-1,3-dione]	50 nM	–	1060.7	54.1 µM	IC50 [1, 6]: 51 nM
O=C1c2cccc(N3CCCCC3)c2C(=O)N1CCCNc1ccnc2cc(Cl)ccc12 [4b]	162 nM	–	344.4	55.8 µM	–
